Measurements taken from ChEMBL document CHEMBL5653615 (J Biol Chem, 2013).

Legend:
[1] = biological target: CDK9/Cyclin K (Homo sapiens) (UniProt P50750+O75909); test: Inhibition of human CDK9/cyclin K at 500 nM by HotSpot assay relative to control; type: protein-complex assay
[2] = biological target: Leukocyte tyrosine kinase receptor (Homo sapiens) (UniProt P29376); test: Inhibition of human LTK at 500 nM by HotSpot assay relative to control
[3] = biological target: Serine/threonine-protein kinase pim-1 (Homo sapiens) (UniProt P11309); test: Inhibition of human PIM1 at 500 nM by HotSpot assay relative to control
[4] = biological target: Serine/threonine-protein kinase Nek4 (Homo sapiens) (UniProt P51957); test: Inhibition of human NEK4 at 500 nM by HotSpot assay relative to control
[5] = biological target: T1, Serine/threonine-protein kinase DCLK2 (Homo sapiens) (UniProt Q8N568); test: Inhibition of human DCAMKL2 at 500 nM by HotSpot assay relative to control
T1 sequence (whole entry): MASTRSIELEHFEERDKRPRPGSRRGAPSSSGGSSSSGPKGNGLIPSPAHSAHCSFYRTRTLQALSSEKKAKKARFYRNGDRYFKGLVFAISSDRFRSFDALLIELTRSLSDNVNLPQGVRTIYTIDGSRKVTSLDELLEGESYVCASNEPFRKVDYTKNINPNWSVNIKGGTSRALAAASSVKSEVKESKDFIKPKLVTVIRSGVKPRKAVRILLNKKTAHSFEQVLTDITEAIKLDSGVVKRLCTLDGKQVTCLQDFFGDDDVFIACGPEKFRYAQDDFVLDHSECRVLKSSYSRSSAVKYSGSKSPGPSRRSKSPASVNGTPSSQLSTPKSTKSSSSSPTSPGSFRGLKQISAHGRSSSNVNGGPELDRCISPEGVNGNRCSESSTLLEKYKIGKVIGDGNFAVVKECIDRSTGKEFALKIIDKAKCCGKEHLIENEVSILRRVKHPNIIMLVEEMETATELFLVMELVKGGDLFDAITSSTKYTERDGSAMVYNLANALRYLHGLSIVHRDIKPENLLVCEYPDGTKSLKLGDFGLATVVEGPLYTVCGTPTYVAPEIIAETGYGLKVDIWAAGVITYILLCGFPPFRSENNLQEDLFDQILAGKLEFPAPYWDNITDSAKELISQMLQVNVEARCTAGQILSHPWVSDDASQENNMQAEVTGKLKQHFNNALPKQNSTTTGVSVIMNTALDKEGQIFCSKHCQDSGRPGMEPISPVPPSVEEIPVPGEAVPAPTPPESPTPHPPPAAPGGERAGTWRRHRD

[6] = biological target: Serine/threonine-protein kinase N2 (Homo sapiens) (UniProt Q16513); test: Inhibition of human PRK2 at 500 nM by HotSpot assay relative to control
[7] = biological target: G protein-coupled receptor kinase 6 (Homo sapiens) (UniProt P43250); test: Inhibition of human GRK6 at 500 nM by HotSpot assay relative to control
[8] = biological target: Mitogen-activated protein kinase kinase kinase kinase 5 (Homo sapiens) (UniProt Q9Y4K4); test: Inhibition of human KHS at 500 nM by HotSpot assay relative to control
[9] = biological target: T2, Calcium/calmodulin-dependent protein kinase type IV (Homo sapiens) (UniProt Q16566); test: Inhibition of human CAMK4 at 500 nM by HotSpot assay relative to control
T2 sequence (whole entry): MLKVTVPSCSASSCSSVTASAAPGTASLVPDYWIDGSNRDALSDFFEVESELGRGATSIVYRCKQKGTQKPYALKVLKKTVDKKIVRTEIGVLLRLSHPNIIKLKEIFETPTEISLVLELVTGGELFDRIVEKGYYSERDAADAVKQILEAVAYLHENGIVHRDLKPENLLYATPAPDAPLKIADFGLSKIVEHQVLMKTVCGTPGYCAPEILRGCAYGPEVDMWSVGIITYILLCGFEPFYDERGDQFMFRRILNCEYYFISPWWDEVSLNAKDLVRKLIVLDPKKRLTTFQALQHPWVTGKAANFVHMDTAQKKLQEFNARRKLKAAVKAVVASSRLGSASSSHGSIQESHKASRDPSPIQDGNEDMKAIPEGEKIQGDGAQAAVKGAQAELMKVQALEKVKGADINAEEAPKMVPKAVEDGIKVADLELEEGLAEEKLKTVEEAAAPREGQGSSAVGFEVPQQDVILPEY

[10] = biological target: T3, Inhibitor of nuclear factor kappa-B kinase subunit epsilon (Homo sapiens) (UniProt Q14164); test: Inhibition of human IKKe at 500 nM by HotSpot assay relative to control
T3 sequence (whole entry): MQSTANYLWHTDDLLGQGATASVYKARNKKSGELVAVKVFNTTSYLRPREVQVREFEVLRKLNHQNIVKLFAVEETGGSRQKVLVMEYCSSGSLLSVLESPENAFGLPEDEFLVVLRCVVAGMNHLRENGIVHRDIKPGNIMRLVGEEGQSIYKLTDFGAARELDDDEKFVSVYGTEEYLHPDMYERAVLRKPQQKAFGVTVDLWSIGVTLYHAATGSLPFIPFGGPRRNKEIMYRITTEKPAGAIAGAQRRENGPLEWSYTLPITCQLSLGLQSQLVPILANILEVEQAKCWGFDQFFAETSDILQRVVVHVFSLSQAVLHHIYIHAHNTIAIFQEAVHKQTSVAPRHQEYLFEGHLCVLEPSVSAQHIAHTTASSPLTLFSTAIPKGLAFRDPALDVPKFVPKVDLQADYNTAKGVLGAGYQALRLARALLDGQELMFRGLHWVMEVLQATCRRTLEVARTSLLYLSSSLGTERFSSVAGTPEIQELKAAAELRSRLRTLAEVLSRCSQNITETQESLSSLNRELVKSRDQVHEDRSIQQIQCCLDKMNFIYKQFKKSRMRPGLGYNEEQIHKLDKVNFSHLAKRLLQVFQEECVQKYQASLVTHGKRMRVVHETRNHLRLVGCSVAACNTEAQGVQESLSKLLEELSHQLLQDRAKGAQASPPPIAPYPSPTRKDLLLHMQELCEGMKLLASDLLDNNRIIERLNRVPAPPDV

[11] = biological target: Homeodomain-interacting protein kinase 3 (Homo sapiens) (UniProt Q9H422); test: Inhibition of human HIPK3 at 500 nM by HotSpot assay relative to control
[12] = biological target: CDK1/Cyclin A (Homo sapiens) (UniProt P06493+P20248); test: Inhibition of human CDK1/cyclin A at 500 nM by HotSpot assay relative to control; type: protein-complex assay
Sequence of CDK1/Cyclin A (Homo sapiens) (P06493 whole entry, looked up): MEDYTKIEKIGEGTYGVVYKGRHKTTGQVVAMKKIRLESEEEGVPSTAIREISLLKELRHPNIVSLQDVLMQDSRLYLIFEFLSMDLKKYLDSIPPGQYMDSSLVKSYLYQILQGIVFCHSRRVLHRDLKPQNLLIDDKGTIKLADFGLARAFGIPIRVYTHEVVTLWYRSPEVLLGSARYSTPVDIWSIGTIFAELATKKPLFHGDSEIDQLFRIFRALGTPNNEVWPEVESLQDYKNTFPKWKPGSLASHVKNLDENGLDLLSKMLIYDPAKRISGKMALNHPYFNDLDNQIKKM
Sequence of CDK1/Cyclin A (Homo sapiens) (P20248 whole entry, looked up): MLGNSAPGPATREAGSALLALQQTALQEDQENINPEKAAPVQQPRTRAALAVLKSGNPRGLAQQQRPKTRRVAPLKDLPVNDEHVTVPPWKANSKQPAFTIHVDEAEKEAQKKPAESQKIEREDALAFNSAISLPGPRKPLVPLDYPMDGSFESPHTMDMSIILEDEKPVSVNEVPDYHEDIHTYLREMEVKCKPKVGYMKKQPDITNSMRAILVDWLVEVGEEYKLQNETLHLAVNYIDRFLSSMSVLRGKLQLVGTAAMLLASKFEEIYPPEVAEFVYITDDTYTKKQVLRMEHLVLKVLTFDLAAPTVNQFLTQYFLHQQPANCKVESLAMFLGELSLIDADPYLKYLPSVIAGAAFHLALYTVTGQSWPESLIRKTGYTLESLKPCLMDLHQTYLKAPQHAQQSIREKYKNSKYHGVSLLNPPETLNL

Sequence of G protein-coupled receptor kinase 6 (Homo sapiens) (P43250 whole entry, looked up): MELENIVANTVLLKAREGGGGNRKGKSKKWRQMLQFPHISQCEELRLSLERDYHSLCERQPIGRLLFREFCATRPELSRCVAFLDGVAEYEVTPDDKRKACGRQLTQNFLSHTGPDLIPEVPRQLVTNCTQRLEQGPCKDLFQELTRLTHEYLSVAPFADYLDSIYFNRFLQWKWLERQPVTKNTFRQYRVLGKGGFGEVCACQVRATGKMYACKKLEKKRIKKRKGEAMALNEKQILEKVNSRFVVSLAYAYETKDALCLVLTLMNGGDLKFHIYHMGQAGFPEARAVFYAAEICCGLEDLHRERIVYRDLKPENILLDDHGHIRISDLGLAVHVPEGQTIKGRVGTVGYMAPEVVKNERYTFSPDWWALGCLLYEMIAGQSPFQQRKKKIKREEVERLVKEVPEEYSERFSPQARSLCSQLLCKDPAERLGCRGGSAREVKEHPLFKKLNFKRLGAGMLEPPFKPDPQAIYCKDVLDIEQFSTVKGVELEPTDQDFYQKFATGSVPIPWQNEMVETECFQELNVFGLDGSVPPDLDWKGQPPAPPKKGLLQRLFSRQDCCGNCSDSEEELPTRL
Sequence of Leukocyte tyrosine kinase receptor (Homo sapiens) (P29376 whole entry): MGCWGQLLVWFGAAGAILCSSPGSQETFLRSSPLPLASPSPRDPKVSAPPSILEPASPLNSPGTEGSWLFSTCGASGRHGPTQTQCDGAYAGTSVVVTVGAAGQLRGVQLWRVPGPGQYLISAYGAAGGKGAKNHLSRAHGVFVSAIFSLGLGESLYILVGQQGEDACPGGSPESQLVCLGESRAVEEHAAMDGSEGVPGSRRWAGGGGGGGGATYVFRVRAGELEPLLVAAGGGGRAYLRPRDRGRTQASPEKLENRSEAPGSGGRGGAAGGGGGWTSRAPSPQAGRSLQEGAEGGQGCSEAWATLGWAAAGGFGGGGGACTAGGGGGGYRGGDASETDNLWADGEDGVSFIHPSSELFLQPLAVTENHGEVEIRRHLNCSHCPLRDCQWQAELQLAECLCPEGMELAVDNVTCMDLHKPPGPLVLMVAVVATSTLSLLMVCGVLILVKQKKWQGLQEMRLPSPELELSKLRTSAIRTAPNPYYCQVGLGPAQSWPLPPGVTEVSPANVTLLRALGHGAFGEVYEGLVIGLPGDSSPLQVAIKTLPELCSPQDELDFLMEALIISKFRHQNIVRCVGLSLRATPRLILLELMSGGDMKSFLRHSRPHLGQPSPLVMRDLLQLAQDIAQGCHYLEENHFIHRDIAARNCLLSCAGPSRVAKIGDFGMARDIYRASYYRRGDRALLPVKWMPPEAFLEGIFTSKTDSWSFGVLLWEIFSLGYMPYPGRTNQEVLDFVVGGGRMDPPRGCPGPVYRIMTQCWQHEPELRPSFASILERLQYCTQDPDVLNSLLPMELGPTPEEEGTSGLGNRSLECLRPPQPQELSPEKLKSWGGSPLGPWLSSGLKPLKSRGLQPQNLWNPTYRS
Sequence of Serine/threonine-protein kinase N2 (Homo sapiens) (Q16513 whole entry, looked up): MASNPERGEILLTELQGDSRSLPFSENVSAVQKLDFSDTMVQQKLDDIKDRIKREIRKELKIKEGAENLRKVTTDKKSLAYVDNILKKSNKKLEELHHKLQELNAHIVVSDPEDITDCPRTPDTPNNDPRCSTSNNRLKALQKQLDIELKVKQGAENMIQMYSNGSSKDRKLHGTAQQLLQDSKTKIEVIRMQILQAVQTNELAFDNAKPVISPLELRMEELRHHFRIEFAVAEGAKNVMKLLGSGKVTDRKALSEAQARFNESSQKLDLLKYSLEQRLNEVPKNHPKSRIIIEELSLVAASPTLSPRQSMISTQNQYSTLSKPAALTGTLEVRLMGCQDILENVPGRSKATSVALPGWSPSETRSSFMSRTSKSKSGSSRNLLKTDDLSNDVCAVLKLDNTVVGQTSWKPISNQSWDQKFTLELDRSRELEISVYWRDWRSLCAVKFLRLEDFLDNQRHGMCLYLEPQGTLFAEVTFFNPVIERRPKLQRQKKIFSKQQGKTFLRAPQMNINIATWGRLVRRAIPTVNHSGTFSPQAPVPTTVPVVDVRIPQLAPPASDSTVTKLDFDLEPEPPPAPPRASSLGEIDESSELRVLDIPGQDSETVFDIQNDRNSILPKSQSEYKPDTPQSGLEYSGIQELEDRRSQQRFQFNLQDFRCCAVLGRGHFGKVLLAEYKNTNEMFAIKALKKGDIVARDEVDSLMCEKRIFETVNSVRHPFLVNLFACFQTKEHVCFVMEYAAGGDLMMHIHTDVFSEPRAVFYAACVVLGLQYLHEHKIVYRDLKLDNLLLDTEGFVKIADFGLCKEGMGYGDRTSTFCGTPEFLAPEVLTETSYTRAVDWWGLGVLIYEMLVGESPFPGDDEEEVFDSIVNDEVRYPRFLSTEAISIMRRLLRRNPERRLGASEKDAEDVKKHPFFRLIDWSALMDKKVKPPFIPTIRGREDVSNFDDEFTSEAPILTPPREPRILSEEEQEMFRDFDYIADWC
Sequence of Serine/threonine-protein kinase pim-1 (Homo sapiens) (P11309 whole entry, looked up): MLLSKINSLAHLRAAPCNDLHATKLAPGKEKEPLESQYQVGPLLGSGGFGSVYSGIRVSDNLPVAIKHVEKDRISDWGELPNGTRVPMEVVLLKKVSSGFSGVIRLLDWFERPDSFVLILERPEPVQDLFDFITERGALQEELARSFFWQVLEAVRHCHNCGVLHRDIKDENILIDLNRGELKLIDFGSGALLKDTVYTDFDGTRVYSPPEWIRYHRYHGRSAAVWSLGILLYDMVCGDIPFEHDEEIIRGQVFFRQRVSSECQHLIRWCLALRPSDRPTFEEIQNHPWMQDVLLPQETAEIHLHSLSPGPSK
Sequence of Serine/threonine-protein kinase Nek4 (Homo sapiens) (P51957 whole entry, looked up): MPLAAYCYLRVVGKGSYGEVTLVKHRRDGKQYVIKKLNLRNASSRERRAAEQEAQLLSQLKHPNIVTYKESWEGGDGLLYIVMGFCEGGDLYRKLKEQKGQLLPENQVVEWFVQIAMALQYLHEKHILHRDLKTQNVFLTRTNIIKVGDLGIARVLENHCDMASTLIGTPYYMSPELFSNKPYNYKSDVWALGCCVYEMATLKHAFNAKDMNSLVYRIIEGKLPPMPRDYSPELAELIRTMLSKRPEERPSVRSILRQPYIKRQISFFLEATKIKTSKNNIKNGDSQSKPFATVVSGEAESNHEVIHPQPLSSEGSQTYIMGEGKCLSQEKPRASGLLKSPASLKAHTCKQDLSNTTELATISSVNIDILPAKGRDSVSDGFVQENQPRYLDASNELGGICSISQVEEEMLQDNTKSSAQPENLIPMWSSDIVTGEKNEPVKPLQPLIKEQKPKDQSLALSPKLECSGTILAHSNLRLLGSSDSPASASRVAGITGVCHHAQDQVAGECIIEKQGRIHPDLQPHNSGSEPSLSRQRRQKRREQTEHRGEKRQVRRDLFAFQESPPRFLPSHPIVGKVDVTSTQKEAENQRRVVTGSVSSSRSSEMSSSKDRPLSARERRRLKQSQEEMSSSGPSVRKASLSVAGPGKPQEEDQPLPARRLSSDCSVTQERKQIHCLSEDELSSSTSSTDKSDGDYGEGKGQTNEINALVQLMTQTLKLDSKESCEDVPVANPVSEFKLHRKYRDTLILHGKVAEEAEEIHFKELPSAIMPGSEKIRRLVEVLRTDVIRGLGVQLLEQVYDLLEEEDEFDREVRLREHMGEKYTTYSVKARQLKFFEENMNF

For `Nc1n[nH]c2nnc(-c3c(-c4ccccc4)nn4ccccc34)cc12`, which inhibition [1] is on record?
Its inhibition is 1.48%.

What about the inhibition [2] of the same compound?
Its inhibition is 9.45%.

And the inhibition [3]?
Its inhibition is -0.39%.

What about the inhibition [4] of the same compound?
The inhibition was 11.6%.

And the inhibition [5]?
The inhibition was -0.33%.

And the inhibition [6]?
Its inhibition is 1.14%.

And the inhibition [7]?
The inhibition was 0.69%.

What about the inhibition [8] of the same compound?
The inhibition was 49.7%.

And the inhibition [9]?
The inhibition was 5.76%.

And the inhibition [10]?
Its inhibition is 4.54%.

And the inhibition [11]?
The inhibition was -3.93%.

And the inhibition [12]?
Its inhibition is -0.55%.

What does the source list for `Oc1n[nH]c2nnc(-c3c(-c4ccccc4)nn4ccccc34)cc12`?
inhibition [1]: -4.88%; inhibition [2]: -7.87%; inhibition [3]: 0.66%; inhibition [4]: 5.04%; inhibition [5]: 0.11%; inhibition [6]: 1.9%; inhibition [7]: 1.01%; inhibition [8]: 3.59%; inhibition [9]: 0.79%; inhibition [10]: 0.81%; inhibition [11]: -0.3%; inhibition [12]: 0.95%
